In US8614236B2 (University of Washington, priority 2006, dated 2013):

Experiments:
Beagle dogs = settings: iv 10 mg·kg^−1·h^−1; Höhne 2004; cited from earlier work
PASMCs = experiment: Changes in membrane potential (Em) in PASMCs, DiBAC4(3) fluorescence; assay type: cell-based, rat; settings: 100 μM
Procedure: The method for obtaining single PASMCs has been described previously in Shimoda L. A., et al., Am J Physiol 274: 842-853 (1998), which is hereby incorporated by reference in its entirety. Intrapulmonary arteries (200-600 μm o.d.) were isolated from male Wistar rats (250-350 g) and cleaned of connective tissue. After the lumen was gently rubbed with a cotton swab to remove the endothelial cells, the arteries were allowed to recover for 30 minutes in cold (4° C.) HBSS containing (in mM): 130 NaCl, 5 KCl, 1.2 MgCl2, 1.5 CaCl2, 10 N-[2-hydroxyethyl]piperazine-N′-[2-ethanesulfonic acid] (HEPES) and 10 glucose, with pH adjusted to 7.2 with 5 M NaOH, followed by 20 minutes in reduced-Ca^2+ (20 μM CaCl2) HBSS at room temperature. The tissue was enzymatically digested in reduced-Ca^2+ HBSS containing collagenase (type I; 1750 U/ml), papain (9.5 U/ml), bovine serum albumin (2 mg/ml) and dithiothreitol (1 mM) at 37° C. for 20 minutes. Following digestion, single smooth muscle cells were dispersed by gentle trituration with a wide-bore transfer pipette in Ca^2+-free HBSS and the cell suspension was placed on 25 mm glass cover slips. PASMCs were transiently cultured in Ham's-F-12 media supplemented with 0.5% fetal bovine serum and 1% penicillin/streptomycin for 24-48 hrs. before study.
Changes in membrane potential were measured using the fluorescence dye, DiBAC4(3), which was excited at 490 nm and detected at 510 nm. Cells were loaded by continuous perfusion with Kreb's solution containing 500 nM DiBAC4(3) and were perfused for at least 15 minutes before beginning measurements to insure stable uptake of dye. Baseline DiBAC4(3) fluorescence was monitored for 5 minutes with control Kreb's, followed by 10 minutes with Kreb's in the presence or absence of AZ (100 μM). At the end of this period, cells were challenged with KCl (60 mM) or endothelin-1 (ET-1) (10^−8 M). Since DiBAC4(3) is a single wavelength dye, any change in the concentration of the dye in the perfusion medium (i.e., differing concentrations between perfusion reservoirs) could result in a change in fluorescence that is not due to a change in membrane potential. To minimize the possibility of this type of error, all experiments were performed using inflow from a single reservoir into which AZ, KCl or ET-1 were dissolved directly.
AZ has recently been proposed to alter the activation of Ca^2+-activated K^+ channels, causing hyperpolarization. See Pickkers P., et al., Br J Pharmacol 132: 443-450 (2001); Tricarico D., et al., Ann Neurol 48: 304-312 (2000); and Tricarico D., et al., Faseb J 18: 760-761 (2004), which are hereby incorporated by reference in their entirety. Since depolarization is believed to contribute to the hypoxia-induced increase in [Ca^2+]i, AZ-induced hyperpolarization could prevent activation of voltage-gated Ca^2+ channels and an increase in [Ca^2+]i in response to hypoxia. In order to test this possibility, the Em-sensitive fluorescent dye, DiBAC4(3) was used. […] Baseline fluorescence was relatively stable over time, decreasing by 4.11±0.4% over 10 minutes (n=90 cells).

Structure (SMILES): CC(=O)Nc1nnc(S(N)(=O)=O)s1 [AZ, acetazolamide]
- effect on HPV in conscious dogs (Beagle dogs): totally abolished
- change in basal DiBAC4(3) fluorescence (basal Em) (PASMCs): −2.86±4.5%
- effect on basal Em (PASMCs): no significant effect
- increase in DiBAC4(3) fluorescence induced by ET-1 in presence of compound (PASMCs; ET-1): 66.0±10.4%
- increase in DiBAC4(3) fluorescence induced by KCl in presence of compound (PASMCs; KCl): 53.13±14.8%
